Data reported in patent US20230065953A1, “NOVEL HETEROARYL-TRIAZOLE COMPOUNDS AS PESTICIDES” (Bayer Aktiengesellschaft, priority 2019, published 2023).

How the values were obtained:
Type in all cases: in vivo
[1] = test system: Rhipicephalus microplus larvae (strain Parkhurst, resistant against synthetic pyrethroids); assay: Rhipicephalus (Boophilus) microplus in-vitro contact test, larval cattle tick; conditions: 5 μg/cm^2 (=500 g/ha), after 48 hours, read-out: efficacy (larvae dead or moribund)
Method in brief: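 Compound in acetone coated onto the inner walls of glass tubes (900 ppm giving 5 μg/cm^2), solvent evaporated, then 20–50 larvae added and held at 27 °C, 85% RH. After 48 h, efficacy scored from negative geotactic behaviour as % dead or moribund larvae.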

[2] = test system: adult engorged female ticks (Rhipicephalus microplus); assay: Rhipicephalus (Boophilus) microplus injection test; conditions: 168 h, 4 μg/animal, egg deposition after 7 days, read-out: efficacy (infertile eggs)
Protocol: Rhipicephalus (Boophilus) Microplus—Injection Test
(§1) Solvent: dimethyl sulfoxide
To produce a suitable preparation of active compound, 10 mg of active compound are dissolved in 0.5 mL solvent, and the concentrate is diluted with solvent to the desired concentration.
Five adult engorged female ticks (Rhipicephalus microplus) are injected with 1 μL compound solution into the abdomen. The ticks are transferred into replica plates and incubated in a climate chamber.
After 7 days egg deposition of fertile eggs is monitored. Eggs where fertility is not visible are stored in a climate chamber till hatching after about 42 days. An efficacy of 100% means all eggs are infertile; 0% means all eggs are fertile.

[3] = test system: adult unfed cat fleas (Ctenocephalides felis); assay: Ctenocephalides felis oral test; conditions: 48 h
Protocol: Ctenocephalides felis—Oral Test
as §1
To produce a suitable preparation of active compound, 10 mg of active compound are dissolved in 0.5 mL solvent, and the concentrate is diluted with cattle blood to the desired concentration.
Approximately 20 adult unfed cat fleas (Ctenocephalides felis) are placed in flea chambers. The blood chamber, sealed with parafilm on the bottom, are filled with cattle blood supplied with compound solution and placed on the gauze covered top of the flea chamber, so that the fleas are able to suck the blood. The blood chamber is heated to 37° C. whereas the flea chamber is kept at room temperature.
After 2 days mortality in % is determined. 100% means all the fleas have been killed; 0% means none of the fleas have been killed.

[4] = test system: adult brown dog ticks (Rhipicephalus sanguineus); assay: Rhipicephalus sanguineus in-vitro contact test with adult brown dog ticks; conditions: 5 μg/cm^2 (=500 g/ha), after 48 hours, read-out: efficacy (ticks dead or moribund)
Protocol: Rhipicephalus sanguineus—In-Vitro Contact Tests with Adult Brown Dog Ticks
(§2) 9 mg compound is solved in 1 mL acetone and diluted with acetone to the desired concentration. 250 μL of the test solution is filled in 25 mL glass test tubes and homogeneously distributed on the inner walls by rotation and tilting on a shaking device (2 h at 30 rpm). With a compound concentration of 900 ppm, an inner surface of 44.7 cm^2 and a homogeneous distribution, a dose of 5 μg/cm^2 is achieved.
(§3) After the solvent has evaporated, each test tube is filled with 5-10 adult brown dog ticks (Rhipicephalus sanguineus), closed with a perforated lid and incubated in a lying position at room temperature and relative humidity. After 48 hours efficacy is determined. The ticks are patted on the ground of the tubes and are incubated on a heating plate at 45-50° C. for at most 5 minutes. Immotile or uncoordinated moving ticks, which are not able to escape the heat by climbing upwards, are marked as dead or moribund.
An efficacy of 100% means all ticks are dead or moribund; 0% means no ticks are dead or moribund.

[5] = test system: green peach aphid (Myzus persicae); assay: Myzus persicae oral test; conditions: 120 h
Protocol: Myzus persicae—oral test • Solvent: 100 parts by weight acetone
To produce a suitable preparation of active compound, 1 part by weight of active compound is mixed with the stated amount of solvent, and the concentrate is diluted with water to the desired concentration. 50 μL compound solution is filled in microtiter plates and 150 μL IPL41 insect medium (33%+15% sugar) is added to obtain a total volume of 200 μL per well. Afterwards the plates are sealed with parafilm through which a mixed population of the green peach aphid (Myzus persicae) can suck on the compound preparation.
After 5 days mortality in % is determined. 100% means all aphids have been killed and 0% means none of the aphids have been killed.

[6] = test system: fall armyworm larvae (Spodoptera frugiperda); assay: Spodoptera frugiperda spray test (maize leaf sections); conditions: 168 h
Method in brief: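 Maize leaf sections sprayed with compound in acetone/dimethylformamide, diluted in water with 1000 ppm alkylarylpolyglycol ether emulsifier. Dried sections infested with fall armyworm larvae. Mortality (%) scored after 7 days; 100% = all caterpillars killed.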

[7] = test system: larvae of the banded cucumber beetle (Diabrotica balteata); assay: Diabrotica balteata spray test; conditions: 168 h, 100 g/ha (=32 μg/well), wheat seeds, after 7 days, read-out: efficacy (seedling growth)
Method in brief: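 Wheat seeds germinated 1 day on agar were sprayed with compound in acetone/dimethylformamide with alkylarylpolyglycol ether emulsifier, diluted in emulsifier-containing water. Each unit then received 10-20 larvae, and % efficacy was scored after 7 days.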

[8] = test system: adult cat fleas (Ctenocephalides felis); assay: Ctenocephalides felis in-vitro contact test, adult cat flea; conditions: 5 μg/cm^2 (=500 g/ha), after 48 hours
Protocol: Ctenocephalides felis—In-Vitro Contact Tests Adult Cat Flea
as §2
as §3, with “cat fleas (Ctenocephalides felis),” for “brown dog ticks (Rhipicephalus sanguineus),”, “fleas” for “ticks”, “fleas,” for “ticks,”
An efficacy of 100% means all fleas are dead or moribund; 0% means no fleas are dead or moribund.

[9] = test system: green peach aphid (Myzus persicae); assay: Myzus persicae spray test; conditions: foliar, 120 h, Chinese cabbage leaf disks, after 5 days
Method in brief: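 Chinese cabbage leaf discs infested with all instars of the aphid were sprayed with compound prepared in acetone/DMF and diluted in water containing 1000 ppm emulsifier. Mortality (%) was scored after 5 days, 100% meaning all aphids killed and 0% none.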

[10] = test system: larvae of the southern green stink bug (Nezara viridula); assay: Nezara viridula spray test; conditions: in Hordeum vulgare, 96 h
Method in brief: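 Barley plants sprayed with compound in acetone/dimethylformamide, diluted in water with 1000 ppm alkylarylpolyglycol ether emulsifier, then infested with Nezara viridula larvae. Percent mortality read after 4 days (100% = all killed, 0% = none).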

Structure (SMILES)	pest or weed control at 5 µg/cm2 [1] [%]	pest or weed control at 0.004 mg [2] [%]	mortality at 100 ppm [3] [%]	pest or weed control at 5 µg/cm2, 500 g/ha [4] [%]	mortality at 4 ppm [5] [%]	mortality at 100 g/ha [6] [%]	pest or weed control at 32 µg/disc, 100 g/ha [7] [%]	efficacy (fleas dead or moribund) [8] [%]	mortality at 100 g/ha [9] [%]	mortality at 500 g/ha [10] [%]
COCCN(C)C(=O)c1cnc(-n2nc(C)nc2[C@H](C)NC(=O)c2cc(C(F)(F)F)cc(C(F)(F)F)c2)s1 [I-3]	100	100	80	100	90	100				
Cc1nc([C@H](C)NC(=O)c2cc(C(F)(F)F)cc(C(F)(F)F)c2)n(-c2ncc(C(=O)N(C)C3CC3)s2)n1 [I-7]	100	100	100	100	100	100	100			
Cc1nc([C@H](C)NC(=O)c2cc(C(F)(F)F)cc(C(F)(F)F)c2)n(-c2ncc(C(=O)N(C)CC(C)C)s2)n1 [I-8]	100	100	100	100	100	100	100			
Cc1nc([C@H](C)NC(=O)c2cc(C(F)(F)F)cc(C(F)(F)F)c2)n(-c2ncc(C(=O)N(C)CC(F)(F)F)s2)n1 [I-11]	100	100	100	100	100	100	100			
Cc1nc([C@H](C)NC(=O)c2cc(Cl)cc(Br)c2)n(-c2ncc(C#N)s2)n1 [I-12]	100	100	100	100		100	100			
Cc1nc([C@H](C)NC(=O)c2cc(Br)cc(Br)c2)n(-c2ncc(C#N)s2)n1 [I-13]	100	100	100	100		83	100			
Cc1nc([C@H](C)NC(=O)c2cc(Br)cc(C#N)c2)n(-c2ncc(C#N)s2)n1 [I-15]	90	100	100	100		83	100	100		
Cc1nc([C@H](C)NC(=O)c2cc(Br)cc(OC(F)(F)F)c2)n(-c2ncc(C#N)s2)n1 [I-17]	100	100	100	100	100	100	100	80		
Cc1nc([C@H](C)NC(=O)c2cc(Cl)cc(C(F)(F)C(F)(F)F)c2)n(-c2ncc(C#N)s2)n1 [I-19]	100	100	100	80		100	100			
Cc1nc([C@H](C)NC(=O)c2cc(Cl)nc(C(F)(F)F)c2)n(-c2ncc(C#N)s2)n1 [I-20, 2-chloro-N-{(1S)-1-[1-(5-cyano-1,3-thiazol-2-yl)-3-methyl-1H-1,2,4-triazol-5-yl]ethyl}-6-(trifluoromethyl)isonicotinamide]	100	100	100	100			100			
Cc1nc([C@H](C)NC(=O)c2cc(Cl)cc(C(F)(F)F)c2)n(-c2ncc(C(=O)N(C)CC#N)s2)n1 [I-23]	100	100	90	100	100	83	100	100	90	
CC(NC(=O)c1cc(OC(F)(F)F)cc(C2CC2)c1)c1ncnn1-c1ncc(C#N)s1 (stereo not shown) [I-30]	100	100	100	100	100	100	100			
C[C@H](NC(=O)c1cc(I)cc(OC(F)F)c1)c1ncnn1-c1ncc(C#N)s1 [I-38]	100			80			100	90		
CNC(=O)c1cnc(-n2nc(C)nc2[C@H](C)NC(=O)c2cc(Cl)cc(C(F)(F)F)c2)s1 [I-69]	80	100		80	100	100	100	90	90	
Cc1nc([C@H](C)NC(=O)c2cc(Br)cc(Br)c2)n(-c2ncc(C(=O)N(C)CC#N)s2)n1 [I-72]	100			100	100	100	100	80		
Cc1nc([C@H](C)NC(=O)c2cc(Br)cc(OC(F)(F)F)c2)n(-c2ncc(C(=O)N(C)CC#N)s2)n1 [I-125]	100			80		100	100	100	90	100
